“And” between values parts separate entries of the source, which are not always exact repeats. Equal values may be shown once. Where a name gives a salt, the structure may show the parent alone.
Legend:
hBACE-1 = hBACE-1 (Homo sapiens, UniProt P56817); test: BACE-1 FRET inhibition assay; assay type: biochemical; conditions: for inhibition at 5 µM: tested at 5 µM concentration; for IC50: FRET assay, average of multiple experiments each in triplicate, ± SEM
Procedure: The new benzophenone-based hybrids 3–7 presented in this study were first evaluated for their in vitro ability to inhibit the enzymatic activity of BACE-1, by means of a biochemical assay performed using the fluorescence resonance energy transfer (FRET) methodology and in comparison to inhibitor IV [22] as reference compound (Table 1). For the most interesting compounds 3–5, endowed with the orto-hydroxycarbonyl substitution pattern, the neuroprotective potential was determined as lack of toxic effects on neuronal cell viability and as Cu(II) chelating activity (Table 2); moreover, their direct interactions with Cu(II) ion were confirmed by a UV-vis spectrophotometric study.
Inhibition studies were performed using the following procedure: 5 μL of test compound (or DMSO) were pre-incubated with 175 μL of enzyme (10.37 nM, final concentration) in 20 mM NaOAc pH 4.5 containing CHAPS (0.1% w/v) for 1 h at r.t.; M-2420 (3 μM, final concentration) was then added and left to react for 15 min. The fluorescence signal was read at λem = 405 nm (λexc = 320 nm). DMSO concentration in the final mixture was maintained below 5% (v/v) to guarantee no significant loss of enzyme activity.Fluorescence intensities with and without inhibitor were compared and the percent inhibition due to the presence of test compounds was calculated. The background signal was measured in control wells containing all the reagents, except theenzymeand subtracted. The % inhibition due to the presence of increasing test compound concentration was calculated by the following expression: 100 − (IFi/IFo × 100) where IFi and IFo are the fluorescence intensities obtained for the enzyme in the presence and in the absence of inhibitor, respectively. Inhibition curves were obtained for each compound by plotting the % inhibition versus the logarithm of inhibitor concentration in the assay sample. The linear regression parameters were determined and the IC50 extrapolated (GraphPad Prism 4.0, GraphPad Software Inc., San Diego, CA, USA).

CatD = CatD (Homo sapiens, UniProt P07339); test: CatD inhibition; assay type: biochemical; conditions: up to 0.5 μM
CatD, sequence (P07339 65-412): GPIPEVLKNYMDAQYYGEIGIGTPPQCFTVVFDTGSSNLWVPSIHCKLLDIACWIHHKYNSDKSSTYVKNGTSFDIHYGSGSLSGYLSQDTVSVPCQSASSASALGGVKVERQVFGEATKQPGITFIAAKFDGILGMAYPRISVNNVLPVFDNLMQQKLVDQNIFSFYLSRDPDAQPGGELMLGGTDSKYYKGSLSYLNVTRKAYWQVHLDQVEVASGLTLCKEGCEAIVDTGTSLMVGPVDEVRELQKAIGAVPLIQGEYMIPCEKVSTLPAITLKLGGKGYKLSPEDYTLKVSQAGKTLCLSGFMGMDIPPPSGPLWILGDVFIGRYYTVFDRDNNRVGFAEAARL

SH-SY5Y cells = test: Neurotoxicity, MTT cell viability assay; assay type: cell-based, human; conditions: for IC50: Homo sapiens, SH-SY5Y cells, 24 h treatment, 1.25–40 µM, MTT, mean ± SD
Procedure: Cytotoxic effects in several in vitro or in vivo models have been reported for some chalcones. Therefore, to discriminate the neurotoxic concentrations of the conjugates 3–5 we evaluated the cell viability of human neuronal SH-SY5Y cells after 24 h treatment with these conjugate at different concentrations (1.25–40 μM) using the MTT assay. […] Thus, the presence of an α,β-unsatured carbonyl fragment seems to positively influence the degree of neuronal toxicity, leading to molecules endowed with a favorable SI.
Human neuronal (SH-SY5Y) cells were routinely grown in Dulbecco’s modified Eagle’ Medium (DMEM) supplemented with 10% fetal bovine serum, 2 mmol/L-glutamine, 50 U·mL^−1penicillin and 50 μg·mL^−1streptomycin at 37 °C in a humidified incubator with 5% CO2.
To evaluate the neurotoxicity of compounds, the SH-SY5Y cells were seeded in 96-well plates at 2 × 10^4 cells/well, incubated for 24 h and subsequently treated with various concentrations of compounds (1.25–40 µM) for 24 h at 37 °C in 5% CO2;. The cell viability in terms of mitochondrial metabolic function was evaluated by the reduction in 3-(4,5-dimethyl-2-thiazolyl)-2,5-diphenyl-2H-tetrazolium bromide (MTT) to formazan as previously described. The quantity of formazan was directly proportional to the number of viable cells. Briefly, the treatment medium was replaced with MTT (5 mg/mL) in phosphate-buffered saline (PBS) for 2 h at 37 °C in 5% CO2. After washing with PBS, the formazan crystals were dissolved with isopropanol. The amount of formazan was measured (570 nm, reference filter 690 nm) using a multilabel plate reader (VICTOR™ X3, PerkinElmer, Waltham, MA, USA). The neurotoxicity is expressed as concentration of compound resulting in 50% inhibition of cell viability.

[1] = Cu(II) chelating assay (bathocuproinedisulfonic acid disodium salt, BCS); assay type: physicochemical
Procedure: Data were expressed as chelating activity percentage (Table 2).
The Cu(II) chelating activity of the compounds was determined using the bathocuproinedisulfonic acid disodium salt (BCS) assay as previously described. Briefly, 50 μL of a 0.25 mM CuSO4 solution were mixed for 2 min with 50 μL of 5–20 µM compound solution in 100 µL of HEPES buffer (15 mM). Hydroxylamine (1 mM) was added after 2 min in order to reduce non-chelated cupric ions into cuprous ones. Finally, 50 μL of BCS (5 mM) or water (blank) was added and the absorbance at 490 nm was measured by spectrophotometry using a multilabel plate reader (VICTOR™ X3, PerkinElmer, Waltham, MA, USA) immediately and at 5 min. Na2EDTA (5–20 µM) was used as a positive control. The ability of the test compounds to chelate cupric ions was calculated using the following equation: chelating activity (%) = [1 − (Abs BCS + compound/Abs BCS) × 100].

[2] = UV-vis spectrophotometric evaluation of Cu(II) ion complexation; assay type: physicochemical
Text: Chalcone conjugates 4 and 5 were investigated to evaluate their ability to complex Cu(II) ions via a UV-vis spectrophotometric study.
Therefore, we decided to carry on the spectrophotometric measurements in a mixed solvent: aqueous MOPS aqueous buffer […] pH 7.4 /DMF in 1:4 ratio, respectively. Flavonoids bearing the 4-carbonyl-5-hydroxyl chelation site have characteristic UV-vis spectra, characterized by a wide and non-structured band centred around 370–380 nm, with a molar extinction coefficient of 50,000 cm^−1·M^−1 that is attributed to HOMO-LUMO transition with a π-π* character.
All reagents and solvents were used as received (from Aldrich, St. Louis, MO, USA) without further purification: copper(II) sulphate hydrate (≥98%), 3-(N-Morpholino)propanesulfonic acid (MOPS, ≥99.5%), sodium hydroxide (≥98%), N,N-dimethylformamide (spectroscopic grade, DMF). A Milli-Q system (Millipore, Billerica, MA, USA) was used for the purification of water (resistivity ≥18.2 MΩ). MOPS bufferstock solution were obtained by a dissolution in Milli-Q water of 3-(N-morpholino)propane sulphonic acid to a final concentration of 10^−3 M. The pH was corrected with a solution of sodium hydroxide 1 N to a value of pH 7.4. Absorption spectra were recorded on a Perkin-Elmer Lambda 45 spectrophotometer at room temperature. Spectrophotometric titrations were performed as follows: stock solutions of ligands (ca. 10^−3 M) were prepared in DMF, diluted down to the desired concentration, in the quartz cuvette, in MOPS buffer 10^−3 M pH 7.4/DMF (1:4) to a final volume of 2.5 mL and then titrated by adding increasing amounts of Cu(II) (3.04 × 10^−3 Min DMF).

[3] = 5 µM compound, fixed 40 µM CuSO4
[4] = 10 µM compound, fixed 40 µM CuSO4
[5] = 20 µM compound, fixed 40 µM CuSO4, mean ± SD

hBACE-1, sequence (P56817 46-501): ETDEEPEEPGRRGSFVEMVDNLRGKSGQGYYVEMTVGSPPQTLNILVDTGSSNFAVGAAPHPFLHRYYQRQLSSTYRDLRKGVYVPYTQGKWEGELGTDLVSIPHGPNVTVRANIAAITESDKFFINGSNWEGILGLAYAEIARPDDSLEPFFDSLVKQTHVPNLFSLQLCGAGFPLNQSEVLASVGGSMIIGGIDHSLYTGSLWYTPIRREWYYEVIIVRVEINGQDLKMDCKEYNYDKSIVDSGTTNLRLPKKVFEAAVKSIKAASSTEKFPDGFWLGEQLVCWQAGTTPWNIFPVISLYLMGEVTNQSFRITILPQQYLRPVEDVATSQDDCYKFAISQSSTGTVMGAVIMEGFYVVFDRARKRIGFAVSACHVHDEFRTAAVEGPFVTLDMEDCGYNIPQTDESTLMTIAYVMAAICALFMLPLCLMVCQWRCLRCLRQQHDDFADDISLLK

COc1ccc(C(=O)c2ccc(CN(C)Cc3ccccc3)cc2)cc1OC [Compound 1]
inhibition at 5 µM (hBACE-1): 20% | CatD inhibition (CatD): not inhib.

COc1cc(/C=C/C(=O)c2ccc(OCCOc3ccc(C(=O)c4ccc(CN(C)Cc5ccccc5)cc4)cc3)cc2O)cc(OC)c1OC [Compound 4, E-1-{4-[2-(4-4-Benzylmethylaminomethylbenzoylphenoxy)ethoxy]-2-hydroxyphenyl}-3-(3,4,5-trimethoxy-phenyl)prop-2-en-1-one]
IC50 (hBACE-1): 1.06 ± 0.15 µM | IC50 (SH-SY5Y cells): 23.7 ± 3.54 µM | selectivity index SI (SH-SY5Y cells; neurotoxicity IC50 versus BACE-1 IC50): around 22 | Cu(II)-Chelating Activity [1, 3]: 7.16% | Cu(II)-Chelating Activity [1, 4]: 10.77% | Cu(II)-Chelating Activity [1, 5]: 15.07% and 15.07 ± 1.32% | ability to complex Cu(II) ions ([2]; UV-vis spectra, MOPS buffer pH 7.4/DMF 1:4): able to chelate the selected ion | association constant (order of magnitude) ([2]; estimated from titration data, 1:1 complex stoichiometry with Cu(II), MOPS pH 7.4/DMF 1:4): ~10^4

COc1cc(C2CC(=O)c3ccc(OCCOc4ccc(C(=O)c5ccc(CN(C)Cc6ccccc6)cc5)cc4)cc3O2)cc(OC)c1OC (centres unmarked) (as salt: HCl) [Compound 6, 7-{2-[4-(4-Benzylmethylaminomethylbenzoyl)phenoxy]ethoxy}-2-(3,4,5-trimethoxyphenyl)chroman-4-one]
melting point: 182 to 194 °C

COc1cc(/C=C/C(=O)c2ccc(OCCO)cc2O)cc(OC)c1OC [Compound 2, (E)-1-[2-Hydroxy-4-(2-hydroxyethoxyphenyl)]-3-(3,4,5-trimethoxyphenyl)prop-2-en-1-one]
inhibition at 5.2 µM (hBACE-1; at 5.2 μM): 35.9% | inhibition at 5 µM (hBACE-1): 20% | melting point: 186 to 188 °C

disodium salt of ethylene diaminetetraacetic acid [Na2EDTA, reference compound]
Cu(II)-Chelating Activity [1, 5]: 17.10 ± 1.44%

CN(Cc1ccccc1)Cc1ccc(C(=O)c2ccc(OCCOc3ccc4c(c3)OC(c3cccc5ccccc35)CC4=O)cc2)cc1 (centres unmarked) (as salt: HCl) [Compound 7]
melting point: 172 to 195 °C

COc1cc(/C=C/C(=O)c2ccc(OCCOc3ccc(C(=O)c4ccc(CN(C)Cc5ccccc5)cc4)cc3)cc2O)cc(OC)c1OC (as salt: HCl) [Compound 4, E-1-{4-[2-(4-4-Benzylmethylaminomethylbenzoylphenoxy)ethoxy]-2-hydroxyphenyl}-3-(3,4,5-trimethoxy-phenyl)prop-2-en-1-one]
melting point: 220 to 222 °C

CN(Cc1ccccc1)Cc1ccc(C(=O)c2ccc(OCCOc3ccc4c(c3)OC(c3cccc5ccccc35)CC4=O)cc2)cc1 (centres unmarked) [Compound 7]
IC50 (hBACE-1): 3.97 ± 0.33 µM

CC(=O)c1ccc(OCCOc2ccc(C(=O)c3ccc(CN(C)Cc4ccccc4)cc3)cc2)cc1O [Compound 3, 1-{4-[2-(4-4-Benzylmethylaminomethylbenzoylphenoxy)ethoxy]-2-hydroxyphenyl}ethan-1-one]
IC50 (hBACE-1): 3.18 ± 0.21 µM | IC50 (SH-SY5Y cells): 10.9 ± 1.63 µM | Cu(II)-Chelating Activity [1, 3]: 0.00% | Cu(II)-Chelating Activity [1, 4]: 3.49% | Cu(II)-Chelating Activity [1, 5]: 5.37% and 5.37 ± 0.16%

CC(=O)c1ccc(OCCOc2ccc(C(=O)c3ccc(CN(C)Cc4ccccc4)cc3)cc2)cc1O (as salt: HCl) [Compound 3, 1-{4-[2-(4-4-Benzylmethylaminomethylbenzoylphenoxy)ethoxy]-2-hydroxyphenyl}ethan-1-one]
melting point: 264 to 268 °C

COc1cc(C2CC(=O)c3ccc(OCCOc4ccc(C(=O)c5ccc(CN(C)Cc6ccccc6)cc5)cc4)cc3O2)cc(OC)c1OC (centres unmarked) [Compound 6, 7-{2-[4-(4-Benzylmethylaminomethylbenzoyl)phenoxy]ethoxy}-2-(3,4,5-trimethoxyphenyl)chroman-4-one]
IC50 (hBACE-1): 1.56 ± 0.23 µM

CN(Cc1ccccc1)Cc1ccc(C(=O)c2ccc(OCCOc3ccc(C(=O)/C=C/c4cccc5ccccc45)c(O)c3)cc2)cc1 (as salt: HCl) [Compound 5, E-1-{4-[2-(4-4-Benzylmethylaminomethylbenzoylphenoxy)ethoxy]-2-hydroxyphenyl}-3-(naphthalen-1-yl)-prop-2-en-1-one]
melting point: 197 to 199 °C
